Reference: the CheMixHub ionic liquid set
± gives the uncertainty stated by the source.

Experiment: xn = mol fraction of the nth substance listed

CCC(C)O (stereo not given) + CCCCCC[n+]1ccn(C)c1.O=[N+]([O-])[O-]
100 kPa, x2 = 0
Conditions | viscosity [mPa·s]
293.15 K | 3.67 ± 0.18
298.15 K | 3.04 ± 0.15
303.15 K | 2.54 ± 0.13
308.15 K | 2.13 ± 0.11
313.15 K | 1.8 ± 0.09
318.15 K | 1.54 ± 0.08
323.15 K | 1.33 ± 0.07

c1c[nH]cn1 + CC(C)C[P+](C)(CC(C)C)CC(C)C.Cc1ccc(S(=O)(=O)[O-])cc1
Conditions | viscosity [mPa·s]
313.09 K, 101.33 kPa, x2 = 0.5 | 181 ± 42

[Cl][Zn][Cl] + CCCC[n+]1ccn(C)c1.[Cl-]
303.15 K, 100 kPa
Conditions | electrical conductivity [S/m]
x2 = 0.333 | 0.00188 ± 8e-05
x2 = 0.5 | 0.0237 ± 0.0009
x2 = 0.666 | 0.0171 ± 0.0007

CCCC[N+]1(C)CCCCC1.F[P-](F)(F)(F)(F)F + CCCC[N+]1(C)CCCC1.F[P-](F)(F)(F)(F)F
102 kPa
Conditions | viscosity [mPa·s]
353.15 K, x1 = 0.5 | 154 ± 16
383.15 K, x1 = 0.3 | 41 ± 4

CC[n+]1ccn(CCOC)c1.O=S(=O)([N-]S(=O)(=O)C(F)(F)F)C(F)(F)F + CO
100 kPa
Conditions | viscosity [mPa·s]
288.15 K, x1 = 0.2999 | 7.19 ± 0.17
288.15 K, x1 = 0.5 | 15.9 ± 0.29
288.15 K, x1 = 0.5984 | 22.75 ± 0.39
288.15 K, x1 = 0.7934 | 37.29 ± 0.54
293.15 K, x1 = 1 | 43.63 ± 0.49
298.15 K, x1 = 0.1 | 1.627 ± 0.06
298.15 K, x1 = 0.2999 | 5.44 ± 0.12
303.15 K, x1 = 0.2999 | 4.8 ± 0.1
303.15 K, x1 = 0.5 | 9.83 ± 0.17
303.15 K, x1 = 1 | 29.33 ± 0.33
308.15 K, x1 = 0.1997 | 2.658 ± 0.067
308.15 K, x1 = 0.2999 | 4.263 ± 0.09
308.15 K, x1 = 0.3966 | 6.33 ± 0.11
308.15 K, x1 = 0.5984 | 12 ± 0.19
308.15 K, x1 = 0.7934 | 18.08 ± 0.24
313.15 K, x1 = 0.5984 | 10.42 ± 0.17
313.15 K, x1 = 0.6953 | 13.27 ± 0.18
313.15 K, x1 = 0.7934 | 15.68 ± 0.2
318.15 K, x1 = 0.2999 | 3.449 ± 0.07

CC[n+]1ccn(CCOC)c1.O=S(=O)([N-]S(=O)(=O)C(F)(F)F)C(F)(F)F + CCO
viscosity [mPa·s], 100 kPa
Conditions | x1 = 0.1 | x1 = 0.1947 | x1 = 0.2995 | x1 = 0.4 | x1 = 0.5002 | x1 = 0.6001 | x1 = 0.6999 | x1 = 0.8 | x1 = 0.9 | x1 = 1
288.15 K | 2.988 ± 0.091 | 5.32 ± 0.12 | 8.21 ± 0.16 | 12.02 ± 0.23 | 17.17 ± 0.29 | 22.86 ± 0.36 | 29.81 ± 0.45 | 37.73 ± 0.55 | 47.39 ± 0.63 | 54.62 ± 0.35
293.15 K | 2.648 ± 0.078 | 4.62 ± 0.1 | 7.03 ± 0.13 | 10.16 ± 0.19 | 14.5 ± 0.24 | 19.09 ± 0.29 | 24.64 ± 0.36 | 30.74 ± 0.44 | 38.01 ± 0.5 | 43.63 ± 0.49
298.15 K | 2.361 ± 0.068 | 4.046 ± 0.089 | 6.09 ± 0.11 | 8.7 ± 0.16 | 12.31 ± 0.2 | 16.25 ± 0.25 | 20.6 ± 0.29 | 25.4 ± 0.35 | 31.15 ± 0.4 | 35.49 ± 0.4
303.15 K | 2.117 ± 0.06 | 3.591 ± 0.077 | 5.32 ± 0.1 | 7.53 ± 0.13 | 10.53 ± 0.17 | 13.87 ± 0.21 | 17.61 ± 0.25 | 21.35 ± 0.29 | 25.87 ± 0.33 | 29.33 ± 0.33
308.15 K | 1.907 ± 0.053 | 3.195 ± 0.067 | 4.688 ± 0.084 | 6.58 ± 0.12 | 9.1 ± 0.15 | 11.89 ± 0.18 | 15.14 ± 0.21 | 18.22 ± 0.24 | 21.81 ± 0.28 | 24.58 ± 0.28
313.15 K | 1.725 ± 0.047 | 2.861 ± 0.059 | 4.162 ± 0.074 | 5.799 ± 0.099 | 7.91 ± 0.13 | 10.27 ± 0.15 | 13.06 ± 0.18 | 15.8 ± 0.21 | 18.68 ± 0.23 | 20.86 ± 0.23
318.15 K | 1.568 ± 0.042 | 2.576 ± 0.053 | 3.743 ± 0.065 | 5.15 ± 0.086 | 6.95 ± 0.11 | 8.97 ± 0.13 | 11.36 ± 0.16 | 13.73 ± 0.18 | 16.27 ± 0.2 | 18.03 ± 0.2

CC(=O)[O-].CCCCCCCCCCCCCC[P+](CCCCCC)(CCCCCC)CCCCCC + COCCOCCOCCOCCOC
100 kPa
Conditions | viscosity [mPa·s]
278.15 K, x2 = 0.207 | 651 ± 35
278.15 K, x2 = 0.499 | 176 ± 5
283.15 K, x2 = 0.207 | 462 ± 22
288.15 K, x2 = 0.103 | 549 ± 28
288.15 K, x2 = 0.4 | 145 ± 4
298.15 K, x2 = 0.103 | 287 ± 11
298.15 K, x2 = 0.4 | 88 ± 1
313.15 K, x2 = 0.103 | 130 ± 3

CCCC[P+](CC)(CC)CC.N#Cc1ccc[n-]1 + OCCN(CCO)CCO
100 kPa
Conditions | electrical conductivity [S/m] | viscosity [mPa·s]
293.15 K, x1 = 0.005 | 0.0013 ± 0.0001 | –
293.15 K, x1 = 0.012 | 0.0027 ± 0.0003 | –
293.15 K, x1 = 0.029 | 0.0046 ± 0.0005 | 980 ± 150
293.15 K, x1 = 0.035 | 0.005 ± 0.0005 | –
293.15 K, x1 = 0.223 | – | 810 ± 120
293.15 K, x1 = 0.459 | 0.0205 ± 0.0021 | –
298.15 K, x1 = 0.018 | – | 629 ± 94
303.15 K, x1 = 0.223 | – | 341 ± 50
303.15 K, x1 = 0.508 | – | 278 ± 40

CCOP(=O)([O-])OCC.CC[N+]1(C)CCCC1 + CCO
viscosity [mPa·s], 100 kPa
Conditions | 293.15 K | 298.15 K | 303.15 K | 308.15 K | 313.15 K | 318.15 K | 323.15 K | 328.15 K | 333.15 K | 338.15 K
x1 = 0.1003 | 3.85 ± 0.23 | 3.4 ± 0.21 | 2.99 ± 0.18 | 2.66 ± 0.16 | 2.35 ± 0.14 | 2.07 ± 0.13 | 1.83 ± 0.11 | 1.67 ± 0.1 | 1.5 ± 0.09 | 1.44 ± 0.09
x1 = 0.2001 | 8.78 ± 0.53 | 7.84 ± 0.47 | 6.91 ± 0.42 | 6.2 ± 0.38 | 5.58 ± 0.34 | 5.06 ± 0.31 | 4.67 ± 0.28 | 4.27 ± 0.26 | 3.94 ± 0.24 | 3.62 ± 0.22
x1 = 0.3004 | 18.4 ± 1.1 | 15.67 ± 0.95 | 13.37 ± 0.81 | 11.53 ± 0.7 | 9.97 ± 0.61 | 8.78 ± 0.53 | 7.86 ± 0.48 | 7.13 ± 0.43 | 6.55 ± 0.4 | 6.04 ± 0.37
x1 = 0.4001 | 39.8 ± 2.4 | 29.8 ± 1.8 | 24.8 ± 1.5 | 20.6 ± 1.3 | 17.7 ± 1.1 | 15.24 ± 0.93 | 13.14 ± 0.8 | 11.6 ± 0.71 | 10.25 ± 0.63 | 9.19 ± 0.56
x1 = 0.4997 | 66.9 ± 4.1 | 52.7 ± 3.2 | 42.3 ± 2.6 | 34.5 ± 2.1 | 28.5 ± 1.8 | 23.8 ± 1.5 | 20.3 ± 1.3 | 17.4 ± 1.1 | 14.99 ± 0.92 | 13.17 ± 0.81
x1 = 0.6002 | 116.3 ± 7.4 | 88.7 ± 5.6 | 68.7 ± 4.3 | 54.9 ± 3.4 | 43.9 ± 2.7 | 35.2 ± 2.2 | 29.3 ± 1.8 | 24.6 ± 1.5 | 20.7 ± 1.3 | 17.9 ± 1.1
x1 = 0.7001 | 180 ± 12 | 133.7 ± 8.7 | 102.4 ± 6.6 | 78.8 ± 5 | 62.3 ± 3.9 | 49.5 ± 3.1 | 39.7 ± 2.5 | 32.8 ± 2.1 | 27 ± 1.7 | 22.6 ± 1.4
x1 = 0.8011 | 265 ± 19 | 193 ± 13 | 143.7 ± 9.5 | 109.7 ± 7.1 | 83 ± 5.3 | 66.1 ± 4.2 | 51.9 ± 3.3 | 42.1 ± 2.7 | 34.3 ± 2.2 | 28.3 ± 1.8
x1 = 0.8985 | 334 ± 24 | 237 ± 17 | 173 ± 12 | 130.1 ± 8.7 | 98.4 ± 6.4 | 75.6 ± 4.9 | 59.5 ± 3.8 | 47.3 ± 3 | 37.8 ± 2.4 | 30.9 ± 2
x1 = 1 | 441 ± 34 | 307 ± 22 | 220 ± 15 | 164 ± 11 | 121.4 ± 8.1 | 92.7 ± 6.1 | 73 ± 4.8 | 56.2 ± 3.7 | 44.4 ± 2.9 | 36.3 ± 2.4
